Measured values: ChEMBL document CHEMBL1201862, “PubChem BioAssay data set” (2004)
Values belong to the compound of their own block, whether it stands above or below them. Calls of active or inactive are those of the source.

Experiments:
Procathepsin L = Procathepsin L (Homo sapiens, UniProt P07711)
Aspartyl aminopeptidase = Aspartyl aminopeptidase (Plasmodium falciparum 3D7, UniProt Q8I2J3)
[1] = molecular target: T1, Short transient receptor potential channel 4 (Mus musculus, UniProt Q9QUQ5); experiment: block of DAMGO-driven TRPC4 calcium entry – cell-based, HEK293 TRPC4/mu-opioid, Fluo-4 calcium, dose response (AID 434942); type: functional;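 also: potency of inhibitors blocking the TRPC4 calcium response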
T1 sequence (Q9QUQ5 whole entry): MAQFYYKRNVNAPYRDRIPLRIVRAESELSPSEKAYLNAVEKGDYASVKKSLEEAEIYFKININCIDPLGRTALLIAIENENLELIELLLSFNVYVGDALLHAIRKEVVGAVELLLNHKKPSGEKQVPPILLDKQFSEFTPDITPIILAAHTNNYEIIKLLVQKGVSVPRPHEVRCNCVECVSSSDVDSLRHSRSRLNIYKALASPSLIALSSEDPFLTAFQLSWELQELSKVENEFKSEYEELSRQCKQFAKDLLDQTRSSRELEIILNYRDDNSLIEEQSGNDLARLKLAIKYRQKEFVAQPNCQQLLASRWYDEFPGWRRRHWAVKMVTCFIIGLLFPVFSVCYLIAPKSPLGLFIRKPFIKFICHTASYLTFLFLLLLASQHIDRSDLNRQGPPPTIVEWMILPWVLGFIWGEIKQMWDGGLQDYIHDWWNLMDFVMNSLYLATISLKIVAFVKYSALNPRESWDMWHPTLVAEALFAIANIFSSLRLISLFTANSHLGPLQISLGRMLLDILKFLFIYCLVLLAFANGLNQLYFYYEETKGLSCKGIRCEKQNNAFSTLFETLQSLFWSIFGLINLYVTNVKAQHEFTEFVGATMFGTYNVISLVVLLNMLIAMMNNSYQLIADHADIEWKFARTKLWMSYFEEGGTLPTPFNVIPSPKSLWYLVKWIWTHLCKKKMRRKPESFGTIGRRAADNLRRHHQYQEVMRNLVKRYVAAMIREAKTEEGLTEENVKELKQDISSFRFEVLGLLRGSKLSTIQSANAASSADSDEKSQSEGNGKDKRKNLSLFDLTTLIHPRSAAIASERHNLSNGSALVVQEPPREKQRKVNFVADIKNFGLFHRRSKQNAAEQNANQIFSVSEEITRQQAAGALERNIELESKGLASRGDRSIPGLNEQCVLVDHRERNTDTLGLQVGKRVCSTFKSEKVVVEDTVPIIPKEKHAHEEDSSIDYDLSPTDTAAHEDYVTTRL

[2] = molecular target: T2, E3 ubiquitin-protein ligase XIAP (Homo sapiens, UniProt P98170); experiment: Counter Screen using XIAP-Bir3 for Chemical Antagonists of Bir1/2 domains of IAP-family anti-apoptotic proteins. [Related pubchem assays (depositor defined):AID1018, AID1449, AID1514, AID1638, AID1749, AID1750, AID488957, AID488963]
[3] = viability loss in HepG2 hepatoma cells – cell-based, ATP luminescence, cherry-pick, activator set 2, cytotoxicity control, dose response (AID 1053143); type: functional
[4] = molecular target: T2, E3 ubiquitin-protein ligase XIAP; experiment: small molecules displacing peptide from XIAP – biochemical, IAP family, fluorescence polarization (AID 1018); type: functional
[5] = molecular target: Lysosomal acid glucosylceramidase (Homo sapiens, UniProt P04062); experiment: Dose response cell-based high throughput screening assay to identify enhancers of beta-glucosidase activity. [Related pubchem assays: 784 ]; type: functional
[6] = molecular target: Scavenger receptor class B member 1 (Mus musculus, UniProt Q61009); experiment: mouse SR-BI DiI-HDL uptake blockers – ldlA[mSR-BI] cells, fluorescence, cherry pick, dose response (AID 493194); type: functional, cell-based;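 also: cellular uptake of fluorescent DiI-labeled HDL measured as cell fluorescence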
[7] = molecular target: T3, Carboxy-terminal domain RNA polymerase II polypeptide A small phosphatase 1 (Homo sapiens, UniProt Q9GZU7); experiment: CTDSP1 inhibitors, concentration-response, biochemical, absorbance readout, ultra-high-throughput screen actives (AID 540297); type: functional
T3 sequence (Q9GZU7 whole entry): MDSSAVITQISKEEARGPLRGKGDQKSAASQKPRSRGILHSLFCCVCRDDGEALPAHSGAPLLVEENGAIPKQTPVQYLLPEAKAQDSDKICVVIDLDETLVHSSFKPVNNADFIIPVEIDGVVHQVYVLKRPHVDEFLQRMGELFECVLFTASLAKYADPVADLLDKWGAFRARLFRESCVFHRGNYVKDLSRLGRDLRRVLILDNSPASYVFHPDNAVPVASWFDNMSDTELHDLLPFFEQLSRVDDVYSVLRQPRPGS

Bcl-2-like protein 10 = molecular target: T4, Bcl-2-like protein 10 (Homo sapiens, UniProt Q9HD36); experiment: Bcl-B/TR3 peptide binding disruption – biochemical, fluorescence polarization, FITC-TR3 peptide, selectivity assay for Bfl-1 inhibitor project, primary screen (AID 748);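 also: fluorescence polarization from a fluorescein-labelled TR3 peptide binding purified Bcl-B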
T4 sequence (Q9HD36 whole entry): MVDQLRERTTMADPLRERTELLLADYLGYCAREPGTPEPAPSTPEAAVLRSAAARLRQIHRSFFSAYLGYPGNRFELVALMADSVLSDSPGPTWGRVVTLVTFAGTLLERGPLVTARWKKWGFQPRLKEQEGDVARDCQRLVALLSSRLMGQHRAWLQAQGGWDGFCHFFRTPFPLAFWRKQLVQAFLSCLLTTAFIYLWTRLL

Estrogen receptor beta [8] = molecular target: T5, Estrogen receptor beta (Homo sapiens, UniProt Q92731); experiment: blockers of SRC-3 recruitment to ERβ – biochemical, ELISA, streptavidin-HRP readout, orthogonal assay, confirmation (AID 1060)
Estrogen receptor = Estrogen receptor (Homo sapiens, UniProt P03372);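 also: potency for inhibiting coactivator peptide recruitment to the receptor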
Estrogen receptor beta [9] = molecular target: T5, Estrogen receptor beta
[10] = NIH3T3 cell viability loss – ATP luminescence, mouse fibroblasts, counter-screen, dose response (AID 2010); type: functional, cell-based;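 also: cells exposed to compound for about 90 hours before reading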
[11] = molecular target: T1, Short transient receptor potential channel 4; experiment: calcium entry via TRPC4 opening agents – cell-based, HEK293 TRPC4/mu-opioid, Fluo-4 calcium, dose response (AID 434937); type: functional
[12] = DRD fibroblast viability loss – cell-based, non-viral oncogenic, luminescence, dose response (AID 1934); type: functional; conditions: Homo sapiens
[13] = Trypanosoma cruzi growth suppression in host cells – NIH3T3 host cells, beta-gal luminescence, confirmation (AID 2044); type: functional, cell-based;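 also: intracellular parasites grown in NIH/3T3 mouse fibroblasts as host cells; luminescent beta-galactosidase reporter signal from transgenic T. cruzi replicating inside host cells; inhibitors lower the luminescence signal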
BJ [14] = experiment: cells; type: functional, cell-based; conditions: Homo sapiens
BJ [15] = experiment: BJ-TERT fibroblast viability loss – cell-based, RAS-independent, luminescence, dose response (AID 1933); type: functional; conditions: Homo sapiens
BJ [16] = experiment: BJ-TERT-LT-ST fibroblast viability loss – cell-based, RAS-independent, luminescence, dose response (AID 1935); type: functional; conditions: Homo sapiens;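 also: BJ fibroblasts immortalized with TERT plus LT and ST oncogenes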
Vero = experiment: mammalian cell viability reduction – secondary assay, cytotoxicity control for West Nile virus antiviral project, dose response (AID 1650); type: functional; conditions: Chlorocebus sabaeus
[17] = molecular target: Dual specificity protein phosphatase 3 (Homo sapiens, UniProt P51452); experiment: SAR VHR1 Fluorescent Assay for In Vitro dose response studies Set 2. [Related pubchem assays (depositor defined):AID1654, AID1661, AID1878]; type: functional
[18] = molecular target: T6, Tyrosine-protein phosphatase non-receptor type 7 (Homo sapiens, UniProt P35236); experiment: SAR analysis of chemical inhibitors of HePTP using a Fluorescent assay - Set 2. [Related pubchem assays (depositor defined):AID1059, AID1077, AID1661, AID2085, AID521]; type: functional
T6 sequence (P35236 whole entry): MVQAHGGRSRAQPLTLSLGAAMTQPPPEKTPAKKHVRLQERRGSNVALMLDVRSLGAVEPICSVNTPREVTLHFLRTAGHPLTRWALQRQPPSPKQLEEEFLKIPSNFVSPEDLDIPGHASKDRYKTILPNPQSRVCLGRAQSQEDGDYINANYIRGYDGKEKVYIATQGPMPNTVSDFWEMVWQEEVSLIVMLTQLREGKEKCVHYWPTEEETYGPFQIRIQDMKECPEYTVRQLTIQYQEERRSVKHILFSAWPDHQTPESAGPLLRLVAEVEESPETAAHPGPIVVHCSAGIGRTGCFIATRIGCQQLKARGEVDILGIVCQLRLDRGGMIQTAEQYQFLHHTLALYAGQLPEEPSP

Hexokinase HKDC1 = molecular target: T7, Hexokinase HKDC1 (Homo sapiens, UniProt Q2TB90); experiment: inhibition of HKDC1 glucose phosphorylation – biochemical, W721R variant, dose response (AID 504729); type: functional
T7 sequence (Q2TB90 whole entry): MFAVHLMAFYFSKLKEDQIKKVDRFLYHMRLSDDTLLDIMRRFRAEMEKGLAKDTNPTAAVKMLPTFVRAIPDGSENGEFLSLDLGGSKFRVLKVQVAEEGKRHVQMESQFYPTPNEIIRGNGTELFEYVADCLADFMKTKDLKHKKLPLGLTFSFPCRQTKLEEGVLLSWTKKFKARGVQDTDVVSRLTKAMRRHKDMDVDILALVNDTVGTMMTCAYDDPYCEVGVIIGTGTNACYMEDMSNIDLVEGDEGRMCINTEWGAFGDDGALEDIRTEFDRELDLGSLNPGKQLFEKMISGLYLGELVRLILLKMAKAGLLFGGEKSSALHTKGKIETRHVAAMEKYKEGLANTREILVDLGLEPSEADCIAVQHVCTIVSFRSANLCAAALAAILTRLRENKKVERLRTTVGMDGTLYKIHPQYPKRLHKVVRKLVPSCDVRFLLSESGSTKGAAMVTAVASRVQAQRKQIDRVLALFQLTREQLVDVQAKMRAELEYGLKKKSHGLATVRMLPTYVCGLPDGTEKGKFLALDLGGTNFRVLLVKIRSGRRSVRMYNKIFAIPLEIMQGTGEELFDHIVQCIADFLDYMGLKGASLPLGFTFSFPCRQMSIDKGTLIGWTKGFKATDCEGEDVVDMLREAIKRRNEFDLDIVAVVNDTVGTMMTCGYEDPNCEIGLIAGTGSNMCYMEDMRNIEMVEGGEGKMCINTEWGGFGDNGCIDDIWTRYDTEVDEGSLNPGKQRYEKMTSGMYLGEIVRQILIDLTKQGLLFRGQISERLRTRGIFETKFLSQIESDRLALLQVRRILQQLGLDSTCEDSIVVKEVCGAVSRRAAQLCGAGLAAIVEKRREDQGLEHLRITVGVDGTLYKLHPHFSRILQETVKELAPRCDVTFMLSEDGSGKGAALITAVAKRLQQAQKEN

Genome polyprotein = Genome polyprotein (dengue virus type 2, UniProt P29990); experiment: flavivirus cap methylation enzyme inhibition – biochemical, confirmation dose response, primary screen (AID 588689); type: functional
Genome polyprotein, sequence (P29990 2492-3391 limits assumed): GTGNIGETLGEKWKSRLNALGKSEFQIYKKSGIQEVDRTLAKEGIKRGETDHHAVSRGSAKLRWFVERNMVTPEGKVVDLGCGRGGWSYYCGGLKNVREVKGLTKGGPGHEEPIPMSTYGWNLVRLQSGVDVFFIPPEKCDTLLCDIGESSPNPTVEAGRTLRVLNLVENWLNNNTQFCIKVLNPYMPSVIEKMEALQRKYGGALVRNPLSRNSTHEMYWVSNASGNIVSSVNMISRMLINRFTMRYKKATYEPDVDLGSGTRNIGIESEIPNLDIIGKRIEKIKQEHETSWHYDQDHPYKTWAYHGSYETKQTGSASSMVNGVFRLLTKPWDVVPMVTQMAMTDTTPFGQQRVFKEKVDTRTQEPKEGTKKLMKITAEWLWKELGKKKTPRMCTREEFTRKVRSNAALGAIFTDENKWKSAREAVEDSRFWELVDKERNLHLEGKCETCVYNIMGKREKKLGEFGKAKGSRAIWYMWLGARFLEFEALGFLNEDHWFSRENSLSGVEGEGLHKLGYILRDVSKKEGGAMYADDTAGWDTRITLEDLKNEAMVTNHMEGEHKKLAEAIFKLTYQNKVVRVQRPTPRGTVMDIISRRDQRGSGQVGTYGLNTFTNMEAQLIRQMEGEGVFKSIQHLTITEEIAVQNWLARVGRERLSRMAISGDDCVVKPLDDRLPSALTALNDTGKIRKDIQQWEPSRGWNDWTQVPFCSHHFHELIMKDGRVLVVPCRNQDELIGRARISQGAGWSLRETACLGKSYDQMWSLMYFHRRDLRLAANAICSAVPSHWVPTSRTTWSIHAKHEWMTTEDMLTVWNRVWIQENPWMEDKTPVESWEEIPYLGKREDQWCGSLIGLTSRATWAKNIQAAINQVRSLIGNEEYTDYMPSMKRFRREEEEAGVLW

T5 sequence (Q92731 whole entry): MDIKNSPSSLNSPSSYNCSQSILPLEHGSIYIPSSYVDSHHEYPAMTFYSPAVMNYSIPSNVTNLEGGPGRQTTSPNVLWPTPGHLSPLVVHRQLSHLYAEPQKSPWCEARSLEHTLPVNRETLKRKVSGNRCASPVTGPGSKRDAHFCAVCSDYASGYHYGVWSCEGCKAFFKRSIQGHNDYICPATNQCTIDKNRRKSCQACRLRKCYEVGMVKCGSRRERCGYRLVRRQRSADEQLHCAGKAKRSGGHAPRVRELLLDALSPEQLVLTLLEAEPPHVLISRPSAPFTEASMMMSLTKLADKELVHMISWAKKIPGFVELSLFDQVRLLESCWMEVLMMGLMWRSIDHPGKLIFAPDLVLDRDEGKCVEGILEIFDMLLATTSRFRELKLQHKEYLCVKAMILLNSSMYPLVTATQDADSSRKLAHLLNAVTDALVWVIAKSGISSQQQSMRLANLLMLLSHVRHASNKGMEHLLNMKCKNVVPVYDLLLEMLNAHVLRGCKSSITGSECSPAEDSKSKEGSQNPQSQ
T2 sequence (P98170 whole entry): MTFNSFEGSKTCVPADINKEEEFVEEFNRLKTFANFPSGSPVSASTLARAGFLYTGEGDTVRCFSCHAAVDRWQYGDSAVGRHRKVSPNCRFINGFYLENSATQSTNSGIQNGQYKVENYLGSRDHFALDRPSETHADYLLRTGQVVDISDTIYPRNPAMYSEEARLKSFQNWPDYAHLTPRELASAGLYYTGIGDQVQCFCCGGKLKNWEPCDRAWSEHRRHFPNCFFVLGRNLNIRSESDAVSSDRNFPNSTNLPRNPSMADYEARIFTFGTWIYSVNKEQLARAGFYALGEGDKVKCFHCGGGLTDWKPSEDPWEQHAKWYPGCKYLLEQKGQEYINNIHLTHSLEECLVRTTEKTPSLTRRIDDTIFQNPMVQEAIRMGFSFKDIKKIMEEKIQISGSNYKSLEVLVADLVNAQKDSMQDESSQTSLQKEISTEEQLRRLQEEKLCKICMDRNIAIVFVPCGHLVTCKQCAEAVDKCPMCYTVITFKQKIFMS
Scavenger receptor class B member 1, sequence (Q61009 whole entry, the tested form may be a part): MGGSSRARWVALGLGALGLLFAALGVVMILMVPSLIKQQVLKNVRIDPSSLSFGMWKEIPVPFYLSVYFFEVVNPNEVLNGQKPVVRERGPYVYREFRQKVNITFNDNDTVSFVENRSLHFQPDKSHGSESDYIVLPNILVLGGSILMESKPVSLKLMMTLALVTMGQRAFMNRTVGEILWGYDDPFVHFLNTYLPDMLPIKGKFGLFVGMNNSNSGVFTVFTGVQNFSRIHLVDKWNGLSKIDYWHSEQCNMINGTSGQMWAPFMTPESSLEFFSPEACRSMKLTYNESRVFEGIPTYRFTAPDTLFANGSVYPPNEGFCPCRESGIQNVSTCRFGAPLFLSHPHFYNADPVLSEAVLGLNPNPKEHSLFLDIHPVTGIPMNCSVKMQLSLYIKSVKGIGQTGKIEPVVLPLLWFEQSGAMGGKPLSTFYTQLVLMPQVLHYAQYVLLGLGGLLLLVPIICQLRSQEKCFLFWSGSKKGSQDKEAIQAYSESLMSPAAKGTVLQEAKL
Lysosomal acid glucosylceramidase, sequence (P04062 whole entry): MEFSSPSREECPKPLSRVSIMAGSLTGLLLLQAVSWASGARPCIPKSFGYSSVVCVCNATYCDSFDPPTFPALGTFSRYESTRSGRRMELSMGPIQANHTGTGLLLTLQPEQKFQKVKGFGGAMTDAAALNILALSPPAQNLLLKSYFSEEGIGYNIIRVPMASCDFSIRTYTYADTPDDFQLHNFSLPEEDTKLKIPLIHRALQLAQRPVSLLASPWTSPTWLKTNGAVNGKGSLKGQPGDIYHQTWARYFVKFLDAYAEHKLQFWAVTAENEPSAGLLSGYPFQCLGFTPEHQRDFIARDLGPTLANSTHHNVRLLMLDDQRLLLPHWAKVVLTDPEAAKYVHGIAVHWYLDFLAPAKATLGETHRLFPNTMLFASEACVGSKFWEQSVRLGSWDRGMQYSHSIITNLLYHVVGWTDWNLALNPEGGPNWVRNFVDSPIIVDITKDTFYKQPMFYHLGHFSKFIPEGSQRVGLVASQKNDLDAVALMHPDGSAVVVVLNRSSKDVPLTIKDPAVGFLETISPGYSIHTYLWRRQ
Dual specificity protein phosphatase 3, sequence (P51452 whole entry): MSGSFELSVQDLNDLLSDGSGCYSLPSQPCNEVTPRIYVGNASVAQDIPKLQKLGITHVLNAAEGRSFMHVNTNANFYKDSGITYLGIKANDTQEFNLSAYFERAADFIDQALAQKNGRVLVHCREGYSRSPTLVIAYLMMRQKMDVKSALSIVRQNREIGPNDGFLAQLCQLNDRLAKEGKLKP
Aspartyl aminopeptidase, sequence (Q8I2J3 whole entry): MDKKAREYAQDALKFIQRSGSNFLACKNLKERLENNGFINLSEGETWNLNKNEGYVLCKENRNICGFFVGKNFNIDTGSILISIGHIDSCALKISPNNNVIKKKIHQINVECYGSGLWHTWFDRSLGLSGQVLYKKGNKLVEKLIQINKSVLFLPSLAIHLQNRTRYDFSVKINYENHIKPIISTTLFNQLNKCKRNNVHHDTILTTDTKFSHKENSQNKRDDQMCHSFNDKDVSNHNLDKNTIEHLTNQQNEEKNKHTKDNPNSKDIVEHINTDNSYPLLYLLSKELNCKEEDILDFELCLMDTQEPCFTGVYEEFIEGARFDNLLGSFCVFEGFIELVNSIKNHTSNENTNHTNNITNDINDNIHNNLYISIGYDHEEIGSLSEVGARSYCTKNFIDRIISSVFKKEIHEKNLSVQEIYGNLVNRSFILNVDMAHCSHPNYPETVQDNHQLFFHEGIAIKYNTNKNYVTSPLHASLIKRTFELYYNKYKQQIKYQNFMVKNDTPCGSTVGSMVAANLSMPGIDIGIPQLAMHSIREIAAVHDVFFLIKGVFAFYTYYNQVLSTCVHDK
Procathepsin L, sequence (P07711 whole entry): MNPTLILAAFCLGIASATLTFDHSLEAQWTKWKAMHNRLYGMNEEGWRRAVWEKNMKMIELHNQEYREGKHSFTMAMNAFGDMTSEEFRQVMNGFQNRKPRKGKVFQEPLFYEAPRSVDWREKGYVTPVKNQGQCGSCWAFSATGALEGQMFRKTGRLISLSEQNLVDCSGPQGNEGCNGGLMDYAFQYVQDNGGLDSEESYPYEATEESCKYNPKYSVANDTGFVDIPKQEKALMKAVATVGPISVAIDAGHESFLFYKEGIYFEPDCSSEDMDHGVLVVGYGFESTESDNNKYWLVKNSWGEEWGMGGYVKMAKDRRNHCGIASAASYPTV
Estrogen receptor, sequence (P03372 whole entry): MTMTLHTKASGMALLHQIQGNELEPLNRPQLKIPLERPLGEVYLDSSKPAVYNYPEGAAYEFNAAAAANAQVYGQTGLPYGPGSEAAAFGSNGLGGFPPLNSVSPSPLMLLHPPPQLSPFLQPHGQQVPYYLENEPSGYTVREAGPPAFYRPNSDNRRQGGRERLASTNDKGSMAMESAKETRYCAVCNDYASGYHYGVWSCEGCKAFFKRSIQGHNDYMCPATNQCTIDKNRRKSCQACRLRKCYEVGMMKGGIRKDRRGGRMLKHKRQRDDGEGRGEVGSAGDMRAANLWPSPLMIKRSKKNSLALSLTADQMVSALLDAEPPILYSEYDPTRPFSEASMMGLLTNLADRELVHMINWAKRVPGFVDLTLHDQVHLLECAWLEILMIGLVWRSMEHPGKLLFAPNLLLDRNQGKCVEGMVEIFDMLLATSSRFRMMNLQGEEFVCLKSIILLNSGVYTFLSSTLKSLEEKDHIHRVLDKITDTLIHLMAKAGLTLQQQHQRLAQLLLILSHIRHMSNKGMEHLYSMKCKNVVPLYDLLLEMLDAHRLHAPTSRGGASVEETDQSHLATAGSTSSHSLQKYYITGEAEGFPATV

IC50 (Procathepsin L): > 59.6 µM (not active)
IC50 (Aspartyl aminopeptidase): 0.603 µM (active)
SMILES: OC(Cn1cnnc1)c1ccccc1 (stereo unspecified)

EC50 [1]: 5.31 µM (active)
SMILES: COc1ccc(C(c2nnnn2C2CCCC2)N2CCN(c3ccccc3)CC2)cc1 (stereo unspecified)

SMILES: COc1cc(OC)cc(-c2nc3cc(C)ccc3o2)c1
IC50 [2]: > 100 µM (inactive)
AC50 [3]: 26 µM (active)
IC50 [4]: > 100 µM (not active)

EC50 [5]: > 50 µM (not active)
SMILES: Cc1ccc(C)n1-c1ccc(C(=O)NCC2CCCO2)cc1 (stereo unspecified)

EC50 [5]: > 50 µM (not active)
SMILES: Cc1c(C)c2cc3c4c(oc3c(C)c2oc1=O)CCCC4

IC50 (Procathepsin L): > 59.6 µM (not active)
IC50 (Aspartyl aminopeptidase): 1.46 µM (active)
SMILES: O=C(Nc1ccc(F)c(Cl)c1)Nn1cnnc1

AC50 [6]: 2.36 µM (active)
SMILES: N#Cc1sc2nc(C3CC3)cc(-c3ccc(Cl)cc3)c2c1N

IC50 [7]: 15.3 µM (active)
IC50 (Bcl-2-like protein 10): > 100 µM (inactive)
IC50 (Estrogen receptor beta [8]): < 0.023 µM (not active)
IC50 (Estrogen receptor): 37 µM (not active)
IC50 (Estrogen receptor beta [9]): 16.7 µM (active)
SMILES: Cc1cc(Cl)ccc1OCC(=O)OC(C)C(=O)N(C)C (stereo unspecified)

SMILES: Nc1c(C(=O)c2ccccc2)sc2nsc(SCCN3CCCC3)c12
EC50 [10]: 14.9 µM (active)
EC50 [11]: 5.96 µM (active)
EC50 [12]: 15.1 µM (active)
EC50 [13]: 0.636 µM (active)
EC50 (BJ [14]): 7.28 µM (active)
EC50 (BJ [15]): 12.8 µM (active)
EC50 (BJ [16]): 12.5 µM (active)

AC50 [6]: 27.5 µM (active)
SMILES: CCc1ccc(NC(=O)C2CCCN(S(=O)(=O)c3ccc4nc(O)ccc4c3)C2)cc1 (stereo unspecified)

SMILES: O=S(=O)(Nc1cc(Sc2cccc3cccnc23)c(O)c2ccccc12)c1ccccc1
EC50 [12]: 16.1 µM (active)
EC50 (BJ [14]): 22.1 µM (inconclusive)
EC50 (BJ [15]): 12.1 µM (inconclusive)
CC50 (Vero): 6.77 µM (active)
EC50 (BJ [16]): > 75 µM (inconclusive)

IC50 [2]: > 100 µM (inactive)
IC50 [7]: 10.3 µM (active)
IC50 [4]: > 100 µM (not active)
SMILES: O=C(O)c1cccc(N2C(=O)C3CC=C(Cl)CC3C2=O)c1 (stereo unspecified)

SMILES: CCCOc1ccc(C(=S)NCc2ccc(F)cc2)cc1
IC50 [17]: 15.1 µM (active)
IC50 [18]: 19.5 µM (active)

SMILES: COc1ccc(OC)c(C(=S)NCc2ccc(F)cc2)c1
IC50 [17]: 13.5 µM (active)
IC50 [18]: 8.78 µM (active)

SMILES: COC1=CC(=O)C(C2CC(=O)c3c(O)cc(O)cc3O2)=CC1=O (stereo unspecified)
IC50 (Hexokinase HKDC1): 11.5 µM (active)
IC50 (Genome polyprotein): 9.23 µM (active)

IC50 (Estrogen receptor beta [8]): 0.35 µM (not active)
IC50 (Estrogen receptor): 30 µM (not active)
IC50 (Estrogen receptor beta [9]): 11.2 µM (active)
SMILES: COc1ccc(-c2nnc(SC/C(O)=C(/C#N)C(C)=N)o2)cc1
